The values below come from US20080076166A1, “Method For Producing Polyunsaturated Fatty Acids In Transgenic Organisms” (priority 2004, published 2008).

Read-outs that look alike come from different tables or passages of the source.

The test system of experiment [1] is desaturase OtDes6.1 (Δ6-desaturase). Type of experiment: cell-based, Ostreococcus tauri. As to conditions: for Activity in %: yeast transformed with pYES2-OtDes6.1, conversion rate [substrate/(substrate+product)*100], mean (n=3). An excerpt:
The Saccharomyces cerevisiae strain 334 was transformed with the vector pYES2.1-OtD6.1 by electroporation (1500 V). A yeast which was transformed with the blank vector pYES2 was used as control. The transformed yeasts were selected on complete minimal dropout uracil medium (CMdum) agar plates supplemented with 2% glucose. After the selection, in each case three transformants were selected for the further functional expression.
To express the OtD6.1 desaturase, precultures consisting of in each case 5 ml of CMdum dropout uracil liquid medium supplemented with 2% (w/v) raffinose were initially inoculated with the selected transformants and incubated for 2 days at 30° C. and 200 rpm. Then, 5 ml of CMdum (dropout uracil) liquid medium supplemented with 2% raffinose and 300 μM various fatty acids were inoculated with the precultures to an OD600 of 0.05. Expression was induced by the addition of 2% (w/v) galactose. The cultures were incubated for a further 96 hours at 20° C.
The yeast cells from the main cultures were harvested by centrifugation (100×g, 5 min, 20° C.) and washed with 100 mM NaHCO3, pH 8.0 to remove residual medium and fatty acids. The yeast cell sediments were extracted for 4 hours using chloroform/methanol (1:1). The resulting organic phase was extracted with 0.45% NaCl, dried with Na2SO4 and evaporated in vacuo. Applying thin-layer chromatography (horizontal tank, chloroform:methanol:acetic acid 65:35:8), the lipid extract was separated further into the lipid classes phosphatidylcholine (PC), phosphatidylinosotol (PI), phosphatidylserine (PS), phsophatidylethanolamine (PE) and neutral lipids (NL). The various separated spots on the thin-layer plate were scraped off. For the gas-chromatographic analysis, fatty acid methyl esters (FAMEs) were prepared by acid methanolysis. To this end, the cell sediments were incubated for one hour at 80° C. together with 2 ml of 1 N methanolic sulfuric acid and 2% (v/v) dimethoxypropane. The FAMEs were extracted twice with petroleum ether (PE). To remove nonderivatized fatty acids, the organic phases were washed in each case once with 2 ml of 100 mM NaHCO3, pH 8.0 and 2 ml of distilled water. Thereafter, the PE phases were dried with Na2SO4, evaporated under argon and taken up in 100 μl of PE. The samples were separated on a DB-23 capillary column (30 m, 0.25 mm, 0.25 μm, Agilent) in a Hewlett-Packard 6850 gas chromatograph equipped with flame ionization detector. The conditions for the GLC analysis were as follows: the oven temperature was programmed from 50° C. to 250° C. with a 5° C./min increment and finally 10 min at 250° C. (holding).
The signals were identified by comparing the retention times with corresponding fatty acid standards (Sigma). The methodology is described for example in Napier and Michaelson, 2001, Lipids. 36(8):761-766; Sayanova et al., 2001, Journal of Experimental Botany. 52(360):1581-1585, Sperling et al., 2001, Arch. Biochem. Biophys. 388(2):293-298 and Michaelson et al., 1998, FEBS Letters. 439(3):215-218.
The substrate specificity of OtDes6.1 was determined after expression and after feeding various fatty acids. The substrates fed can be detected in large amounts in all of the transgenic yeasts. […]
The yeasts which had been transformed with the vector pYES2-OtDes6.1 were grown in minimal medium in the presence of the stated fatty acids. […] Thereafter, the FAMEs were analyzed via GLC. […] The activity corresponds to the conversion rate calculated using the formula [[…]].

The test system of experiment [2] is elongase OtElo2 (Δ6-elongase). The class given is cell-based, Ostreococcus tauri. An excerpt:
(§1) The Saccharomyces cerevisiae strain 334 was transformed with the vector pOTE1 or pOTE2, respectively, by electroporation (1500 V). A yeast which was transformed with the blank vector pYES2 was used as control. The transformed yeasts were selected on complete minimal dropout uracil medium (CMdum) agar plates supplemented with 2% glucose. After the selection, in each case three transformants were selected for the further functional expression.
To express the Ot elongases, precultures consisting of in each case 5 ml of CMdum dropout uracil liquid medium supplemented with 2% (w/v) raffinose were initially inoculated with the selected transformants and incubated for 2 days at 30° C. and 200 rpm. Then, 5 ml of CMdum (dropout uracil) liquid medium supplemented with 2% raffinose and 300 μM various fatty acids were inoculated with the precultures to an OD600 of 0.05. Expression was induced by the addition of 2% (w/v) galactose. The cultures were incubated for a further 96 hours at 20° C. […]
The substrate specificity of OtElo2 (SEQ ID NO: 1) was determined after expression and after feeding various fatty acids (Tab. 3). The substrates fed can be detected in large amounts in all of the transgenic yeasts. […]
The yeasts which had been transformed with the vector pOTE2 were grown in minimal medium in the presence of the fatty acids stated. […] Thereafter, the FAMEs were analyzed by GLC. […]

A further experiment relates to OtD6 + PSE1 + PtD5. As to the kind of experiment: Reconstitution of the PUFA biosynthesis in yeast, total fatty acids. Type of experiment: cell-based. As to conditions: to DHGLA and DHSTA, FIG. 5.
In experiment [3] the test system is elongase OtElo1 (Δ5-elongase). Type of experiment: cell-based, Ostreococcus tauri. The note with it: for Conversion rate (in %): yeast transformed with pOTE1, grown in presence of the fatty acid, FAMEs by GLC, mean (n=3) ± standard deviation.
Source text: as §1
To express the Ot elongases, precultures consisting of in each case 5 ml of CMdum dropout uracil liquid medium supplemented with 2% (w/v) raffinose were initially inoculated with the selected transformants and incubated for 2 days at 30° C. and 200 rpm. Then, 5 ml of CMdum (dropout uracil) liquid medium supplemented with 2% raffinose and 300 μM various fatty acids were inoculated with the precultures to an OD600 of 0.05. Expression was induced by the addition of 2% (w/v) galactose. The cultures were incubated for a further 96 hours at 20° C.
The yeast cells from the main cultures were harvested by centrifugation (100×g, 5 min, 20° C.) and washed with 100 mM NaHCO3, pH 8.0 to remove residual medium and fatty acids. Starting with the yeast cell sediments, fatty acid methyl esters (FAMEs) were prepared by acid methanolysis. To this end, the cell sediments were incubated for one hour at 80° C. together with 2 ml of 1 N methanolic sulfuric acid and 2% (v/v) of dimethoxypropane. The FAMEs were extracted twice with petroleum ether (PE). To remove nonderivatized fatty acids, the organic phases were washed in each case once with 2 ml of 100 mM NaHCO3, pH 8.0 and 2 ml of distilled water. […]
The substrate specificity of OtElo1 was determined after expression and after feeding various fatty acids (Tab. 2). The substrates fed can be detected in large amounts in all of the transgenic yeasts. […]
The yeasts which had been transformed with the vector pOTE1 were grown in minimal medium in the presence of the fatty acids stated. […] Thereafter, the FAMEs were analyzed by GLC. […]

Procedure for OtD6 + PSE1 + PtD5: The yeast cells from the main cultures were harvested by centrifugation (100×g, 5 min, 20° C.) and washed with 100 mM NaHCO3, pH 8.0 to remove residual medium and fatty acids. The yeast cell sediments were extracted for 4 hours using chloroform/methanol (1:1). The resulting organic phase was extracted with 0.45% NaCl, dried with Na2SO4 and evaporated in vacuo. […] For the gas-chromatographic analysis, fatty acid methyl esters (FAMEs) were prepared by acid methanolysis. To this end, the cell sediments were incubated for one hour at 80° C. together with 2 ml of 1 N methanolic sulfuric acid and 2% (v/v) dimethoxypropane. The FAMEs were extracted twice with petroleum ether (PE). To remove nonderivatized fatty acids, the organic phases were washed in each case once with 2 ml of 100 mM NaHCO3, pH 8.0 and 2 ml of distilled water. Thereafter, the PE phases were dried with Na2SO4, evaporated under argon and taken up in 100 μl of PE. The samples were separated on a DB-23 capillary column (30 m, 0.25 mm, 0.25 μm, Agilent) in a Hewlett-Packard 6850 gas chromatograph equipped with flame ionization detector. The conditions for the GLC analysis were as follows: the oven temperature was programmed from 50° C. to 250° C. with a 5° C./min increment and finally 10 min at 250° C. […]
The parameters measured were the total fatty acids.

`CCCCCC/C=C\CCCCCCCC(=O)O` [16:1^Δ9, palmitoleic acid]: in experiment [1], the “Activity of OtDes6.1, in words” value is listed as “markedly less pronounced” and the Activity in % amounted to 5.6%. Consider `CCCCC/C=C\C/C=C\C/C=C\CCCCC(=O)O` [18:3^Δ6,9,12, γ-linolenic acid], for which the “Conversion rate (in %)” value in experiment [2] is 15.3%. The “Elongation of the OtDes6.1 reaction products in the presence of the Δ6-elongase PSE1” value in the experiment on OtD6 + PSE1 + PtD5 is “almost quantitatively”. Turning to `CC/C=C\C/C=C\C/C=C\CCCCCCCC(=O)O` [18:3^Δ9,12,15, linolenic acid], the Activity in % in experiment [1] is 64.6%.

Consider `CCCCC/C=C\C/C=C\CCCCCCCC(=O)O` [18:2^Δ9,12, linoleic acid], for which, in experiment [1], the “Activity of OtDes6.1, in words” value is “highest activities” and the Activity in % is 68.7%.

For the compound `CC/C=C\C/C=C\C/C=C\C/C=C\CCCCC(=O)O` [18:4^Δ6,9,12,15, stearidonic acid], the “Conversion rate (in %)” value in experiment [2] (yeast transformed with pOTE2, grown in presence of the fatty acid, FAMEs by GLC, mean (n=3) ± standard deviation) came out at 21.1%. Moreover, the “Elongation of the OtDes6.1 reaction products in the presence of the Δ6-elongase PSE1” value with OtD6 + PSE1 + PtD5 is “almost quantitatively”. On to `CC/C=C\C/C=C\C/C=C\C/C=C\C/C=C\CCCC(=O)O` [20:5^Δ5,8,11,14,17, eicosapentaenoic acid], for which, in experiment [3], the “Conversion rate (in %)” value is reported as 46.8 ± 3.6%. Take `CCCCC/C=C\C/C=C\C/C=C\C/C=C\CCCC(=O)O` [20:4^Δ5,8,11,14, arachidonic acid]: the “Elongation by OtElo1, in words” value in experiment [3] (Table 2, FIG. 2 and 3) is on record as “capable of elongating”. The “Conversion rate (in %)” value in experiment [3] is listed as 10.8 ± 0.6%.
